Experimental data published in patent US20050022267A1, “Methods for Agrobacterium-mediated transformation of dandelion” (priority 2003, published 2005).

Tests used:
dandelion leaf explants [1] = assay: Effect of phyto-hormones on dandelion regeneration: adventitious shoot formation of leaf explants on seedling media; type: cell-based; settings: for number of regenerated shoots per explant / percentage of leaf explants displaying adventitious shoot formation: four weeks
Procedure: Dandelion seeds are surface-sterilized in approximately 70% (volume/volume, v/v) ethanol for 30 sec in the bottle. The ethanol is removed and the seeds are soaked in approximately 1% (v/v) bleach with gentle agitation for about 15 minutes. The bleach is poured off and the […] are rinsed thoroughly about 3-4 times with sterilized distilled water. Seeds are germinated and in vitro cultured in the sterile bottles containing seedling medium (Table 1). Over one month-old seedlings are used as stock plants for leaf and root explants. The leaves and roots of stock plants are placed in a petri plate with droplets of sterile water. Explants of leaves (ca. 0.5 cm in diameter) and of roots (ca. 0.5 cm in length) were excised from dandelion plants. Approximately 15 to 20 explants per plate are positioned with the adaxial surface down onto pre-incubation medium (Table 2). The plates are incubated under mixed white and red lights for about 6 days at about 22° C. […] Parentheses indicate the number of regenerated shoots per explant.

dandelion leaf explants [2] = assay: Effect of maltose on shoot regeneration in shoot induction media; type: cell-based; settings: 1% maltose (w/v) in shoot induction media
Procedure: Leaf explants derived from dandelion plants were cultured in shoot induction media containing no maltose (w/v) or 1% maltose (w/v) to compare the efficacy of maltose on shoot production.

[3] = isolated from dandelion roots; cited from earlier work
[4] = α-naphthalene acetic acid 0.1 mg/L, 6-benzyladenine 0 mg/L
[5] = α-naphthalene acetic acid 0.1 mg/L, kinetin 0 mg/L
[6] = α-naphthalene acetic acid 0.5 mg/L, 6-benzyladenine 0 mg/L
[7] = α-naphthalene acetic acid 0.5 mg/L, kinetin 0 mg/L
[8] = α-naphthalene acetic acid 1.0 mg/L, 6-benzyladenine 0 mg/L
[9] = α-naphthalene acetic acid 1.0 mg/L, kinetin 0 mg/L
[10] = α-naphthalene acetic acid 2.0 mg/L, 6-benzyladenine 0 mg/L
[11] = α-naphthalene acetic acid 2.0 mg/L, kinetin 0 mg/L
[12] = kinetin 0.5 mg/L, α-naphthalene acetic acid 0 mg/L
[13] = kinetin 0.5 mg/L, α-naphthalene acetic acid 0.1 mg/L
[14] = kinetin 0.5 mg/L, α-naphthalene acetic acid 0.5 mg/L
[15] = kinetin 0.5 mg/L, α-naphthalene acetic acid 1.0 mg/L
[16] = kinetin 0.5 mg/L, α-naphthalene acetic acid 2.0 mg/L
[17] = kinetin 1.0 mg/L, α-naphthalene acetic acid 0 mg/L
[18] = kinetin 1.0 mg/L, α-naphthalene acetic acid 0.1 mg/L
[19] = kinetin 1.0 mg/L, α-naphthalene acetic acid 0.5 mg/L
[20] = kinetin 1.0 mg/L, α-naphthalene acetic acid 1.0 mg/L
[21] = kinetin 1.0 mg/L, α-naphthalene acetic acid 2.0 mg/L
[22] = kinetin 2.0 mg/L, α-naphthalene acetic acid 0 mg/L
[23] = kinetin 2.0 mg/L, α-naphthalene acetic acid 0.1 mg/L
[24] = kinetin 2.0 mg/L, α-naphthalene acetic acid 0.5 mg/L
[25] = kinetin 2.0 mg/L, α-naphthalene acetic acid 1.0 mg/L
[26] = kinetin 2.0 mg/L, α-naphthalene acetic acid 2.0 mg/L
[27] = kinetin 3.0 mg/L, α-naphthalene acetic acid 0 mg/L
[28] = kinetin 3.0 mg/L, α-naphthalene acetic acid 0.1 mg/L
[29] = kinetin 3.0 mg/L, α-naphthalene acetic acid 0.5 mg/L
[30] = kinetin 3.0 mg/L, α-naphthalene acetic acid 1.0 mg/L
[31] = kinetin 3.0 mg/L, α-naphthalene acetic acid 2.0 mg/L
[32] = 6-benzyladenine 0.25 mg/L, α-naphthalene acetic acid 0 mg/L
[33] = 6-benzyladenine 0.25 mg/L, α-naphthalene acetic acid 0.1 mg/L
[34] = 6-benzyladenine 0.25 mg/L, α-naphthalene acetic acid 0.5 mg/L
[35] = 6-benzyladenine 0.25 mg/L, α-naphthalene acetic acid 1.0 mg/L
[36] = 6-benzyladenine 0.25 mg/L, α-naphthalene acetic acid 2.0 mg/L
[37] = 6-benzyladenine 0.5 mg/L, α-naphthalene acetic acid 0 mg/L
[38] = 6-benzyladenine 0.5 mg/L, α-naphthalene acetic acid 0.1 mg/L
[39] = 6-benzyladenine 0.5 mg/L, α-naphthalene acetic acid 0.5 mg/L
[40] = 6-benzyladenine 0.5 mg/L, α-naphthalene acetic acid 1.0 mg/L
[41] = 6-benzyladenine 0.5 mg/L, α-naphthalene acetic acid 2.0 mg/L
[42] = 6-benzyladenine 1.0 mg/L, α-naphthalene acetic acid 0 mg/L
[43] = 6-benzyladenine 1.0 mg/L, α-naphthalene acetic acid 0.1 mg/L
[44] = 6-benzyladenine 1.0 mg/L, α-naphthalene acetic acid 0.5 mg/L
[45] = 6-benzyladenine 1.0 mg/L, α-naphthalene acetic acid 1.0 mg/L
[46] = 6-benzyladenine 1.0 mg/L, α-naphthalene acetic acid 2.0 mg/L
[47] = 6-benzyladenine 2.0 mg/L, α-naphthalene acetic acid 0 mg/L
[48] = 6-benzyladenine 2.0 mg/L, α-naphthalene acetic acid 0.1 mg/L
[49] = 6-benzyladenine 2.0 mg/L, α-naphthalene acetic acid 0.5 mg/L
[50] = 6-benzyladenine 2.0 mg/L, α-naphthalene acetic acid 1.0 mg/L
[51] = 6-benzyladenine 2.0 mg/L, α-naphthalene acetic acid 2.0 mg/L

O=C(O)Cc1cccc2ccccc12 [α-Naphthalene acetic acid, α-naphthalene acetic acid]
number of regenerated shoots per explant (dandelion leaf explants [1]; [4]): (0.0) shoots per explant
percentage of leaf explants displaying adventitious shoot formation (dandelion leaf explants [1]; [4]): 0.0%
number of regenerated shoots per explant (dandelion leaf explants [1]; [5]): (0.0) shoots per explant
percentage of leaf explants displaying adventitious shoot formation (dandelion leaf explants [1]; [5]): 0.0%
number of regenerated shoots per explant (dandelion leaf explants [1]; [6]): (2.0) shoots per explant
percentage of leaf explants displaying adventitious shoot formation (dandelion leaf explants [1]; [6]): 20.0%
number of regenerated shoots per explant (dandelion leaf explants [1]; [7]): (0.0) shoots per explant
percentage of leaf explants displaying adventitious shoot formation (dandelion leaf explants [1]; [7]): 0.0%
number of regenerated shoots per explant (dandelion leaf explants [1]; [8]): (0.0) shoots per explant
percentage of leaf explants displaying adventitious shoot formation (dandelion leaf explants [1]; [8]): 0.0%
number of regenerated shoots per explant (dandelion leaf explants [1]; [9]): (0.0) shoots per explant
percentage of leaf explants displaying adventitious shoot formation (dandelion leaf explants [1]; [9]): 5.0%
number of regenerated shoots per explant (dandelion leaf explants [1]; [10]): (0.0) shoots per explant
percentage of leaf explants displaying adventitious shoot formation (dandelion leaf explants [1]; [10]): 0.0%
number of regenerated shoots per explant (dandelion leaf explants [1]; [11]): (0.0) shoots per explant
percentage of leaf explants displaying adventitious shoot formation (dandelion leaf explants [1]; [11]): 0.0%

OC[C@H]1O[C@H](O[C@H]2[C@H](O)[C@@H](O)C(O)O[C@@H]2CO)[C@H](O)[C@@H](O)[C@@H]1O (mixture of isomers) [Maltose, maltose]
shoot production in comparison to no maltose (dandelion leaf explants [2]): improves shoot production
# of Shoots per Explants (dandelion leaf explants [2]; leaf explants): 25

c1coc(CNc2ncnc3[nH]cnc23)c1 [Kinetin, kinetin]
suitability for dandelion shoot regeneration (dandelion leaf explants [1]; 0.05 mg/l α-naphthalene acetic acid and 1.0 mg/l kinetin or 0.1 mg/l α-naphthalene acetic acid and 2.0 mg/l kinetin): also suitable for dandelion shoot regeneration
number of regenerated shoots per explant (dandelion leaf explants [1]; [12]): (24.8) shoots per explant
percentage of leaf explants displaying adventitious shoot formation (dandelion leaf explants [1]; [12]): 99.9%
number of regenerated shoots per explant (dandelion leaf explants [1]; [13]): (19.8) shoots per explant
percentage of leaf explants displaying adventitious shoot formation (dandelion leaf explants [1]; [13]): 96.7%
number of regenerated shoots per explant (dandelion leaf explants [1]; [14]): (16.9) shoots per explant
percentage of leaf explants displaying adventitious shoot formation (dandelion leaf explants [1]; [14]): 99.9%
number of regenerated shoots per explant (dandelion leaf explants [1]; [15]): (8.1) shoots per explant
percentage of leaf explants displaying adventitious shoot formation (dandelion leaf explants [1]; [15]): 99.9%
number of regenerated shoots per explant (dandelion leaf explants [1]; [16]): (5.8) shoots per explant
percentage of leaf explants displaying adventitious shoot formation (dandelion leaf explants [1]; [16]): 99.9%
number of regenerated shoots per explant (dandelion leaf explants [1]; [17]): (22.7) shoots per explant
percentage of leaf explants displaying adventitious shoot formation (dandelion leaf explants [1]; [17]): 99.9%
number of regenerated shoots per explant (dandelion leaf explants [1]; [18]): (23.4) shoots per explant
percentage of leaf explants displaying adventitious shoot formation (dandelion leaf explants [1]; [18]): 99.9%
number of regenerated shoots per explant (dandelion leaf explants [1]; [19]): (16.8) shoots per explant
percentage of leaf explants displaying adventitious shoot formation (dandelion leaf explants [1]; [19]): 99.9%
number of regenerated shoots per explant (dandelion leaf explants [1]; [20]): (6.7) shoots per explant
percentage of leaf explants displaying adventitious shoot formation (dandelion leaf explants [1]; [20]): 99.9%
number of regenerated shoots per explant (dandelion leaf explants [1]; [21]): (9.8) shoots per explant
percentage of leaf explants displaying adventitious shoot formation (dandelion leaf explants [1]; [21]): 99.9%
number of regenerated shoots per explant (dandelion leaf explants [1]; [22]): (21.9) shoots per explant
percentage of leaf explants displaying adventitious shoot formation (dandelion leaf explants [1]; [22]): 95.0%
number of regenerated shoots per explant (dandelion leaf explants [1]; [23]): (23.6) shoots per explant
percentage of leaf explants displaying adventitious shoot formation (dandelion leaf explants [1]; [23]): 99.9%
number of regenerated shoots per explant (dandelion leaf explants [1]; [24]): (20.3) shoots per explant
percentage of leaf explants displaying adventitious shoot formation (dandelion leaf explants [1]; [24]): 99.9%
number of regenerated shoots per explant (dandelion leaf explants [1]; [25]): (13.4) shoots per explant
percentage of leaf explants displaying adventitious shoot formation (dandelion leaf explants [1]; [25]): 95.5%
number of regenerated shoots per explant (dandelion leaf explants [1]; [26]): (7.3) shoots per explant
percentage of leaf explants displaying adventitious shoot formation (dandelion leaf explants [1]; [26]): 96.2%
number of regenerated shoots per explant (dandelion leaf explants [1]; [27]): (14.7) shoots per explant
percentage of leaf explants displaying adventitious shoot formation (dandelion leaf explants [1]; [27]): 99.9%
number of regenerated shoots per explant (dandelion leaf explants [1]; [28]): (19.3) shoots per explant
percentage of leaf explants displaying adventitious shoot formation (dandelion leaf explants [1]; [28]): 99.9%
number of regenerated shoots per explant (dandelion leaf explants [1]; [29]): (25.5) shoots per explant
percentage of leaf explants displaying adventitious shoot formation (dandelion leaf explants [1]; [29]): 99.9%
number of regenerated shoots per explant (dandelion leaf explants [1]; [30]): (8.9) shoots per explant
percentage of leaf explants displaying adventitious shoot formation (dandelion leaf explants [1]; [30]): 99.9%
number of regenerated shoots per explant (dandelion leaf explants [1]; [31]): (8.1) shoots per explant
percentage of leaf explants displaying adventitious shoot formation (dandelion leaf explants [1]; [31]): 99.9%

C=C1CC[C@]2(C)CC[C@]3(C)[C@H](CC[C@@H]4[C@@]5(C)CC[C@H](O)C(C)(C)[C@@H]5CC[C@]43C)[C@H]2[C@@H]1C [taraxasterol]
anti-tumor-promoting activity [3]: potent anti-tumor-promoting activity

6-benzyladenine
suitability for shoot regeneration of dandelion (dandelion leaf explants [1]; 1 or 2 mg/l 6-benzyladenine and 0.1 mg/l α-naphthalene acetic acid): most suitable for shoot regeneration
number of regenerated shoots per explant (dandelion leaf explants [1]; [32]): (21.2) shoots per explant
percentage of leaf explants displaying adventitious shoot formation (dandelion leaf explants [1]; [32]): 60.0%
number of regenerated shoots per explant (dandelion leaf explants [1]; [33]): (16.3) shoots per explant
percentage of leaf explants displaying adventitious shoot formation (dandelion leaf explants [1]; [33]): 63.0%
number of regenerated shoots per explant (dandelion leaf explants [1]; [34]): (12.0) shoots per explant
percentage of leaf explants displaying adventitious shoot formation (dandelion leaf explants [1]; [34]): 78.0%
number of regenerated shoots per explant (dandelion leaf explants [1]; [35]): (24.5) shoots per explant
percentage of leaf explants displaying adventitious shoot formation (dandelion leaf explants [1]; [35]): 97.0%
number of regenerated shoots per explant (dandelion leaf explants [1]; [36]): (3.6) shoots per explant
percentage of leaf explants displaying adventitious shoot formation (dandelion leaf explants [1]; [36]): 90.0%
number of regenerated shoots per explant (dandelion leaf explants [1]; [37]): (17.4) shoots per explant
percentage of leaf explants displaying adventitious shoot formation (dandelion leaf explants [1]; [37]): 75.0%
number of regenerated shoots per explant (dandelion leaf explants [1]; [38]): (23.8) shoots per explant
percentage of leaf explants displaying adventitious shoot formation (dandelion leaf explants [1]; [38]): 99.9%
number of regenerated shoots per explant (dandelion leaf explants [1]; [39]): (23.7) shoots per explant
percentage of leaf explants displaying adventitious shoot formation (dandelion leaf explants [1]; [39]): 99.9%
number of regenerated shoots per explant (dandelion leaf explants [1]; [40]): (21.7) shoots per explant
percentage of leaf explants displaying adventitious shoot formation (dandelion leaf explants [1]; [40]): 88.0%
number of regenerated shoots per explant (dandelion leaf explants [1]; [41]): (3.2) shoots per explant
percentage of leaf explants displaying adventitious shoot formation (dandelion leaf explants [1]; [41]): 40.0%
number of regenerated shoots per explant (dandelion leaf explants [1]; [42]): (17.4) shoots per explant
percentage of leaf explants displaying adventitious shoot formation (dandelion leaf explants [1]; [42]): 85.0%
number of regenerated shoots per explant (dandelion leaf explants [1]; [43]): (25.1) shoots per explant
percentage of leaf explants displaying adventitious shoot formation (dandelion leaf explants [1]; [43]): 99.9%
number of regenerated shoots per explant (dandelion leaf explants [1]; [44]): (20.4) shoots per explant
percentage of leaf explants displaying adventitious shoot formation (dandelion leaf explants [1]; [44]): 99.9%
number of regenerated shoots per explant (dandelion leaf explants [1]; [45]): (13.1) shoots per explant
percentage of leaf explants displaying adventitious shoot formation (dandelion leaf explants [1]; [45]): 83.0%
number of regenerated shoots per explant (dandelion leaf explants [1]; [46]): (5.9) shoots per explant
percentage of leaf explants displaying adventitious shoot formation (dandelion leaf explants [1]; [46]): 99.9%
number of regenerated shoots per explant (dandelion leaf explants [1]; [47]): (16.0) shoots per explant
percentage of leaf explants displaying adventitious shoot formation (dandelion leaf explants [1]; [47]): 99.9%
number of regenerated shoots per explant (dandelion leaf explants [1]; [48]): (17.4) shoots per explant
percentage of leaf explants displaying adventitious shoot formation (dandelion leaf explants [1]; [48]): 99.9%
number of regenerated shoots per explant (dandelion leaf explants [1]; [49]): (20.7) shoots per explant
percentage of leaf explants displaying adventitious shoot formation (dandelion leaf explants [1]; [49]): 99.9%
number of regenerated shoots per explant (dandelion leaf explants [1]; [50]): (8.5) shoots per explant
percentage of leaf explants displaying adventitious shoot formation (dandelion leaf explants [1]; [50]): 99.9%
number of regenerated shoots per explant (dandelion leaf explants [1]; [51]): (5.4) shoots per explant
percentage of leaf explants displaying adventitious shoot formation (dandelion leaf explants [1]; [51]): 99.9%

CC1(C)CC[C@]2(C)CC=C3[C@]4(C)CC[C@H]5C(C)(C)[C@@H](O)CC[C@]5(C)[C@H]4CC[C@@]3(C)[C@@H]2C1 [taraxerol]
anti-tumor-promoting activity [3]: potent anti-tumor-promoting activity
